Data taken from ChEMBL document CHEMBL5385952, “Facile Synthesis and First Antifungal Exploration of Tetracyclic Meroterpenoids: (+)-Aureol, (-)-Pelorol, and Its Analogs” (J Nat Prod, 2024).

Columns and labels:
Rhizoctonia solani [1] = assay: Antifungal activity against Rhizoctonia solani
Sclerotinia sclerotiorum [2] = assay: Antifungal activity against Sclerotinia sclerotiorum
Sclerotinia sclerotiorum [3] = assay: Antifungal activity against Sclerotinia sclerotiorum at 150 uM; format: functional
Rhizoctonia solani [4] = assay: Antifungal activity against Rhizoctonia solani at 150 uM; format: functional
Botrytis cinerea = assay: Antifungal activity against Botrytis cinerea at 150 uM; format: functional
Fusarium graminearum = assay: Antifungal activity against Fusarium graminearum at 150 uM; format: functional
Phytophthora capsici = assay: Antifungal activity against Phytophthora capsici at 150 uM; format: functional

SMILES	EC50 (Rhizoctonia solani [1])	EC50 (Sclerotinia sclerotiorum [2])	Activity (Sclerotinia sclerotiorum [3])	Activity (Rhizoctonia solani [4])	Activity (Botrytis cinerea)	Activity (Fusarium graminearum)	Activity (Phytophthora capsici)
CC1(C)CCC[C@]2(C)[C@H]3Cc4cc(O)ccc4O[C@]3(C)CC[C@@H]12	16 µM	29 µM					
Cc1cc(O)cc2c1[C@]1(C)CC[C@H]3C(C)(C)CCC[C@]3(C)[C@H]1C2			11%	16%	7%	11%	5%
CC1(C)CCC[C@]2(C)[C@H]3Cc4cc(O)cc(O)c4[C@]3(C)CC[C@@H]12			43%	68%	39%	60%	65%
CC1(C)CCC[C@]2(C)[C@H]3Cc4cc(O)ccc4[C@]3(C)CC[C@@H]12	34 µM	> 150 µM	51%	62%	34%	37%	33%
CC1(C)CCC[C@]2(C)[C@H]3Cc4c(ccc(O)c4O)[C@]3(C)CC[C@@H]12			63%	62%	43%	71%	60%
CC1(C)CCC[C@]2(C)[C@H]3Cc4c(O)c(O)cc(C(=O)O)c4[C@]3(C)CC[C@@H]12	18 µM	26 µM	76%	73%	56%	51%	55%
CCc1cc(O)c(O)c2c1[C@]1(C)CC[C@H]3C(C)(C)CCC[C@]3(C)[C@H]1C2			37%	41%	37%	53%	32%
Cc1cc2c(cc1O)C[C@@H]1[C@@]3(C)CCCC(C)(C)[C@@H]3CC[C@@]21C			31%	58%	24%	32%	9%
CC1(C)CCC[C@]2(C)[C@H]3Cc4c(O)c(O)cc(C=O)c4[C@]3(C)CC[C@@H]12			28%	43%	33%	55%	29%
Cc1cc(O)c(O)c2c1[C@]1(C)CC[C@H]3C(C)(C)CCC[C@]3(C)[C@H]1C2			49%	50%	70%	42%	59%
CC1(C)CCC[C@]2(C)[C@H]3Cc4c(cc(C=O)c(O)c4O)[C@]3(C)CC[C@@H]12			34%	3%	15%	37%	3%
C[C@H]1CC[C@H]2C(C)(C)CCC[C@]23Oc2ccc(O)cc2C[C@]13C [AUREOL]	6.9 µM	19 µM					
COC(=O)c1cc(O)c(O)c2c1[C@]1(C)CC[C@H]3C(C)(C)CCC[C@]3(C)[C@H]1C2 [PELOROL]	7.7 µM	49 µM	75%	87%	52%	62%	40%
